In paper PMC8467136, “Enabling Efficient Folding and High-Resolution Crystallographic Analysis of Bracelet Cyclotides” (Molecules, 2021):
Bridge positions count the residues as written; N and C are the ends. Peptide text beside a SMILES is read from it.

Legend:
[1] = tested on: HeLa cells; test: Cytotoxicity against HeLa cells, resazurin assay; assay type: cell-based; settings: 5000 cells/well, 24-h incubation with peptide, then resazurin 18 h, triplicate, mean ± SEM
Description: To further confirm the activity of these mutants, their cytotoxicity against HeLa cancer cells was evaluated along with wild-type bracelet cyclotides. […] Of the four [I11G] mutants, the hyen D analogue had the highest activity, possibly because hyen D has one more hydrophobic residue in loop 3 compared to the other three cyclotides, which may contribute to its higher lipid-binding capacity (P/L max = 0.37) and help offset the hydrophobicity loss caused by the [I11G] mutation.
The cytotoxicity of the peptides was evaluated using the resazurin assay, as described previously. HeLa cells were seeded at 5000 cells/well in a 96-well, flat-bottomed plate one day prior to the experiments. Peptide solutions were prepared in water and incubated with HeLa cells at concentrations ranging from 16 to 0.125 μM or 8 to 0.063 μM in triplicate (final concentrations). Water and 1% Triton X-100 (TX) were applied as negative and positive control, respectively. After 24-h incubation, 10 μL of resazurin (0.05%, w/v) was added and incubated with cells for another 18 h. The absorbance was measured at 540 and 620 nm on a microplate reader (Infinite M1000 Pro microplate reader, Tecan, Switzerland). The percentage of cell death was quantified by calculating the absorbance ratio, R (R = absorbance at 620/540), and applying the following equation: % Cell death = (Rsample − RH2O)/(RTX − RH2O) × 100. Data were analyzed with GraphPad Prism software (version 8.3.1) using Specific binding with Hill slope algorithm.

[2] = tested on: POPC/POPE (80:20) model membrane; test: Membrane binding to POPC/POPE lipid bilayers by surface plasmon resonance (SPR); settings: for P/L Max, peptide-to-lipid maximum binding value / Kd: BIAcore T200, L1 chip, POPC/POPE (80:20) bilayer, 10 mM HEPES, 150 mM NaCl; for P/L Max, peptide-to-lipid maximum binding value: pH 7.4, injection 180 s, dissociation 600 s, nonlinear regression; for Kd: pH 7.4, nonlinear regression, read-out: KD, peptide concentration required to achieve half-maximum binding at equilibrium
Text: Cyclotides are reported to exert their biological activities via membrane binding, particularly by selective binding to lipids containing phosphatidylethanolamine (PE) headgroups. Therefore, to evaluate the functional impact of the single mutation on bracelet cyclotides, the membrane-binding ability of these variants towards PE-containing lipid bilayers was examined using surface plasmon resonance (SPR). The model membrane comprising 80% 1-palmitoyloleoyl-phosphatidylcholine (POPC) and 20% 1-palmitoyloleoyl-phosphatidylethanolamine (POPE) was used. Binding affinity was evaluated by the peptide-to-lipid maximum binding value (P/L max, mol/mol) and the peptide concentration required to achieve half-maximum binding at equilibrium (KD value, μM). […] The negative effect of the [I11G] bracelet cyclotide mutation on lipid binding was expected, as the mutation reduces surface hydrophobicity, a previously reported determinant of membrane binding. The SPR dose-response curves and sensorgrams are shown in Figure S4 in Supplementary Material.
The binding affinity of bracelet cyclotides and their variants toward lipid bilayers was studied using SPR, as described previously. Two synthetic lipids, 1-palmitoyl-2-oleoyl-glycero-3-phosphocholine (POPC) and 1-palmitoyl-2-oleoyl-sn-glycero-3-phosphoethanolamine (POPE), were purchased from Avanti Polar Lipids (USA). Briefly, homogenous, small, unilamellar vesicles composed of POPC/POPE (80:20, mol/mol) were obtained by extruding the vesicle suspension through a 50-nm pore size polycarbonate membrane. L1 sensor chips and BIAcore T200 instrument were used (Cytiva, Marlborough, MA, USA). After the lipid was loaded and formed a bilayer membrane on the L1 chip, peptide solutions were injected over the lipid surface for 180 s and the dissociation was monitored for 600 s. Peptides were tested at concentrations ranging from 4–32 μM. Peptide-to-lipid molar ratio and KD values were calculated by nonlinear regression using GraphPad Prism software (version 8.3.1). Peptide solutions and lipid vesicles were prepared in HEPES buffer (10 mM HEPES, 150 mM NaCl, pH 7.4, filtered) for SPR studies.

Row | SMILES | CC50 on HeLa (half maximum cytotoxic concentration) [1] [µM] | P/L Max, peptide-to-lipid maximum binding value [2] | Kd [2] [µM] | Fold weaker affinity to membranes compared to parent peptide ([2]; POPC/POPE (80:20), compared with hyen D) [fold]
1 | CC[C@H](C)[C@@H]1NC(=O)[C@H](C)NC(=O)[C@H](CO)NC(=O)[C@H](CO)NC(=O)[C@H]([C@@H](C)CC)NC(=O)[C@@H]2CSSC[C@@H]3NC(=O)[C@H](C(C)C)NC(=O)[C@H](CCCCN)NC(=O)[C@H](CO)NC(=O)[C@H](CCCCN)NC(=O)[C@@H]4CSSC[C@H](NC(=O)[C@H](CO)NC(=O)[C@H](CCC(=O)O)NC(=O)CNC(=O)[C@H](CSSC[C@H](NC(=O)CNC1=O)C(=O)N[C@@H](CO)C(=O)N4)NC(=O)[C@@H]1CCCN1C(=O)[C@H]([C@@H](C)CC)NC(=O)CNC(=O)[C@H](CC(N)=O)NC(=O)[C@H](CCCNC(=N)N)NC(=O)[C@H](Cc1ccc(O)cc1)NC3=O)C(=O)N[C@@H](C(C)C)C(=O)N[C@@H](Cc1c[nH]c3ccccc13)C(=O)NCC(=O)N1CCC[C@H]1C(=O)N2 [[I11G]cyO2] (cyclo(AIGCSCKSKVCYRNGIPCGESCVWGPCISS); disulfide 4-18, 6-22, 11-27) | >64 | n.b. ^3 | – | –
2 | CC[C@H](C)[C@@H]1NC(=O)CNC(=O)[C@H](CC(N)=O)NC(=O)[C@H](CCCNC(=N)N)NC(=O)[C@H](Cc2ccc(O)cc2)NC(=O)[C@@H]2CSSC[C@@H]3NC(=O)[C@@H]4CCCN4C(=O)CNC(=O)[C@H](Cc4c[nH]c5ccccc45)NC(=O)[C@H](C(C)C)NC(=O)[C@@H]4CSSC[C@H](NC(=O)[C@H](CO)NC(=O)[C@H](CSSC[C@H](NC(=O)[C@@H]5CCCN5C1=O)C(=O)NCC(=O)N[C@@H](CCC(=O)O)C(=O)N[C@@H](CO)C(=O)N4)NC(=O)CNC(=O)[C@H](C(C)C)NC(=O)[C@H](C)NC(=O)[C@H](CO)NC(=O)[C@H]([C@@H](C)O)NC(=O)[C@H](CC(C)C)NC3=O)C(=O)N[C@@H](CCCCN)C(=O)N[C@@H](CO)C(=O)N[C@@H](CCCCN)C(=O)N[C@@H](C(C)C)C(=O)N2 [[I11G]cyO9] (cyclo(AVGCSCKSKVCYRNGIPCGESCVWGPCLTS); disulfide 4-18, 6-22, 11-27) | >64 | n.b. | – | –
3 | CC[C@H](C)[C@@H]1NC(=O)[C@H](C)NC(=O)[C@H](C)NC(=O)[C@H]([C@@H](C)O)NC(=O)[C@H](Cc2ccccc2)NC(=O)[C@@H]2CSSC[C@@H]3NC(=O)[C@H](C(C)C)NC(=O)[C@H](CCCCN)NC(=O)[C@H](CO)NC(=O)[C@H](CCCCN)NC(=O)[C@@H]4CSSC[C@H](NC(=O)[C@H](CO)NC(=O)[C@H](CCC(=O)O)NC(=O)CNC(=O)[C@H](CSSC[C@H](NC(=O)CNC1=O)C(=O)N[C@@H](CO)C(=O)N4)NC(=O)[C@@H]1CCCN1C(=O)[C@H](Cc1ccccc1)NC(=O)CNC(=O)[C@H](CC(N)=O)NC(=O)[C@H](CCCCN)NC(=O)[C@H](Cc1ccc(O)cc1)NC3=O)C(=O)N[C@@H](C(C)C)C(=O)N[C@@H](Cc1ccc(O)cc1)C(=O)NCC(=O)N1CCC[C@H]1C(=O)N2 [[I11G]hD] (cyclo(AAIGCSCKSKVCYKNGFPCGESCVYGPCFT); disulfide 5-19, 7-23, 12-28) | 50.2 ± 4.61 | 0.24 ± 0.01 mol/mol | 81 ± 7.91 | 18
4 | CC[C@H](C)[C@@H]1NC(=O)[C@@H]2CSSC[C@@H]3NC(=O)[C@H](C(C)C)NC(=O)[C@H](CCCCN)NC(=O)[C@H](CC(=O)O)NC(=O)[C@H]([C@@H](C)O)NC(=O)[C@@H]4CSSC[C@H](NC(=O)[C@H](CO)NC(=O)[C@H](CCC(=O)O)NC(=O)CNC(=O)[C@H](CSSC[C@H](NC(=O)CNC(=O)[C@H]([C@@H](C)CC)NC(=O)[C@H](C(C)C)NC(=O)CNC(=O)[C@H](CO)NC1=O)C(=O)N[C@@H](CO)C(=O)N4)NC(=O)[C@@H]1CCCN1C(=O)[C@H]([C@@H](C)O)NC(=O)CNC(=O)[C@H](CC(N)=O)NC(=O)[C@H](CC(C)C)NC(=O)[C@H](Cc1ccc(O)cc1)NC3=O)C(=O)N[C@@H](C(C)C)C(=O)N[C@@H](Cc1ccc(O)cc1)C(=O)NCC(=O)N1CCC[C@H]1C(=O)N2 [[I11G]kB5] (cyclo(CGESCVYGPCISGVIGCSCTDKVCYLNGTP); disulfide 1-17, 5-19, 10-24) | >64 | n.b. | – | –
5 | CC[C@H](C)[C@@H]1NC(=O)[C@H](C)NC(=O)[C@H](CO)NC(=O)[C@H](CO)NC(=O)[C@H]([C@@H](C)CC)NC(=O)[C@@H]2CSSC[C@@H]3NC(=O)[C@H](C(C)C)NC(=O)[C@H](CCCCN)NC(=O)[C@H](CO)NC(=O)[C@H](CCCCN)NC(=O)[C@@H]4CSSC[C@H](NC(=O)[C@H](CO)NC(=O)[C@H](CCC(=O)O)NC(=O)CNC(=O)[C@H](CSSC[C@H](NC(=O)CNC1=O)C(=O)N[C@@H](CO)C(=O)N4)NC(=O)[C@@H]1CCCN1C(=O)[C@H]([C@@H](C)CC)NC(=O)CNC(=O)[C@H](CC(N)=O)NC(=O)[C@H](CCCNC(=N)N)NC(=O)[C@H](Cc1ccc(O)cc1)NC3=O)C(=O)N[C@@H](C(C)C)C(=O)N[C@@H](Cc1c[nH]c3ccccc13)C(=O)N[C@@H](CC(C)C)C(=O)N1CCC[C@H]1C(=O)N2 [[I11L]cyO2] (cyclo(AIGCSCKSKVCYRNGIPCGESCVWLPCISS); disulfide 4-18, 6-22, 11-27) | 0.95 ± 0.08 | 0.31 ± 0.01 mol/mol | 4.71 ± 0.17 | –
6 | CC[C@H](C)[C@@H]1NC(=O)CNC(=O)[C@H](CC(N)=O)NC(=O)[C@H](CCCNC(=N)N)NC(=O)[C@H](Cc2ccc(O)cc2)NC(=O)[C@@H]2CSSC[C@@H]3NC(=O)[C@@H]4CCCN4C(=O)[C@H](CC(C)C)NC(=O)[C@H](Cc4c[nH]c5ccccc45)NC(=O)[C@H](C(C)C)NC(=O)[C@@H]4CSSC[C@H](NC(=O)[C@H](CO)NC(=O)[C@H](CSSC[C@H](NC(=O)[C@@H]5CCCN5C1=O)C(=O)NCC(=O)N[C@@H](CCC(=O)O)C(=O)N[C@@H](CO)C(=O)N4)NC(=O)CNC(=O)[C@H](C(C)C)NC(=O)[C@H](C)NC(=O)[C@H](CO)NC(=O)[C@H]([C@@H](C)O)NC(=O)[C@H](CC(C)C)NC3=O)C(=O)N[C@@H](CCCCN)C(=O)N[C@@H](CO)C(=O)N[C@@H](CCCCN)C(=O)N[C@@H](C(C)C)C(=O)N2 [[I11L]cyO9] (cyclo(AVGCSCKSKVCYRNGIPCGESCVWLPCLTS); disulfide 4-18, 6-22, 11-27) | 1.06 ± 0.03 | 0.31 ± 0.00 mol/mol | 4.26 ± 0.06 | –
7 | CC[C@H](C)[C@@H]1NC(=O)[C@H](C)NC(=O)[C@H](C)NC(=O)[C@H]([C@@H](C)O)NC(=O)[C@H](Cc2ccccc2)NC(=O)[C@@H]2CSSC[C@@H]3NC(=O)[C@H](C(C)C)NC(=O)[C@H](CCCCN)NC(=O)[C@H](CO)NC(=O)[C@H](CCCCN)NC(=O)[C@@H]4CSSC[C@H](NC(=O)[C@H](CO)NC(=O)[C@H](CCC(=O)O)NC(=O)CNC(=O)[C@H](CSSC[C@H](NC(=O)CNC1=O)C(=O)N[C@@H](CO)C(=O)N4)NC(=O)[C@@H]1CCCN1C(=O)[C@H](Cc1ccccc1)NC(=O)CNC(=O)[C@H](CC(N)=O)NC(=O)[C@H](CCCCN)NC(=O)[C@H](Cc1ccc(O)cc1)NC3=O)C(=O)N[C@@H](C(C)C)C(=O)N[C@@H](Cc1ccc(O)cc1)C(=O)N[C@@H](CC(C)C)C(=O)N1CCC[C@H]1C(=O)N2 [[I11L]hD] (cyclo(AAIGCSCKSKVCYKNGFPCGESCVYLPCFT); disulfide 5-19, 7-23, 12-28) | 0.70 ± 0.02 | 0.36 ± 0.01 mol/mol | 4.39 ± 0.5 | –
